Reference: patent publication US20120094897A1, “NOVEL INHIBITORS OF HEPATITIS C VIRUS REPLICATION” (InterMune, Inc., priority 2010, published 2012)

Legend:
[1] = target: T1, HCV NS3 protease (full-length NS3/NS4A-2 complex) (Hepatitis C virus genotype 1a, UniProt P27958); assay: NS3 Inhibition Assay (NS3-NS4 protease assay, RETS1 substrate); type: biochemical; details: NS3/NS4A-2, RETS1 substrate, 10 minutes pre-incubation
T1 construct: Recombinant E. coli or Baculovirus full-length NS3 was diluted to 3.33 μM with assay buffer; host or cells: E. coli or baculovirus (insect cells)
T1 sequence (P27958 1027-1657, one chain of several): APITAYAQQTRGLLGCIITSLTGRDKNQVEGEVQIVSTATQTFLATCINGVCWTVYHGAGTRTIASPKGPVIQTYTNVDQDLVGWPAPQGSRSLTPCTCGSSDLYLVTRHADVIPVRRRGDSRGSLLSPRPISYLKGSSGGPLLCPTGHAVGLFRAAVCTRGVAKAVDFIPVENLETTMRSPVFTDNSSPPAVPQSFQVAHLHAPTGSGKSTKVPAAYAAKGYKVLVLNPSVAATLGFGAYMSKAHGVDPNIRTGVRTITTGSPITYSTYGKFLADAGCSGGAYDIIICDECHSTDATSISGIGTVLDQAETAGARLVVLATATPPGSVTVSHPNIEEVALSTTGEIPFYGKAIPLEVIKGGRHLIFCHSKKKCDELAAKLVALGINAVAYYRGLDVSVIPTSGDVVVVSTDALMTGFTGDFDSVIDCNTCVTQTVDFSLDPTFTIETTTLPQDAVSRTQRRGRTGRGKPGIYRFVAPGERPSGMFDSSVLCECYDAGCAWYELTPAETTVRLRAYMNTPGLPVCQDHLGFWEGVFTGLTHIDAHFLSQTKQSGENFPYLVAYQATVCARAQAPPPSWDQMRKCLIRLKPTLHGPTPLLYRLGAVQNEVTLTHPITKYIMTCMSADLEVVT
Description: NS3 Complex Formation with NS4A-2.
Recombinant E. coli or Baculovirus full-length NS3 was diluted to 3.33 μM with assay buffer and the material was transferred to an eppendorf tube and placed in a water bath in a 4° C. refrigerator. The appropriate amount of NS4A-2 diluted to 8.3 mM in assay buffer was added to an equal the volume of NS3 above (conversion factor—3.8 mg/272 μL assay buffer). The material was transferred to an eppendorf tube and placed in water bath in a 4° C. refrigerator.
After equilibration to 4° C., equal volumes of NS3 and NS4A-2 solutions were combined in an eppendorf tube, mixed gently with a manual pipettor, and incubated for 15 minutes in the 4° C. water bath. Final concentrations in the mixture are 1.67 μM NS3, 4.15 mM NS4A-2 (2485-fold molar excess NS4A-2).
After 15 minutes at 4° C., the NS3/NS4A-2 eppendorf tube was removed and placed in a room temperature water bath for 10 minutes. NS3/NS4A-2 was aliquoted at appropriate volumes and stored at −80° C. (E. coli NS3 run at 2 nM in assay, aliquot at 25 μL. BV NS3 run at 3 nM in assay, aliquot at 30 μL).
Step a. Sample compounds were dissolved to 10 mM in DMSO then diluted to 2.5 mM (1:4) in DMSO. Typically, compounds were added to an assay plate at 2.5 mM concentration, yielding upon dilution a starting concentration of 50 μM in the assay inhibition curve. Compounds were serial diluted in assay buffer to provide test solutions at lower concentrations.
Step 1. The E. coli. NS3/NS4A-2 was diluted to 4 nM NS3 (1:417.5 of 1.67 μM stock−18 μL 1.67 μM stock+7497 μL assay buffer). The BV NS3/NS4A-2 was diluted to 6 nM NS3 (1:278.3 of 1.67 μM stock−24 μL 1.67 μM stock+6655 μL assay buffer).
Step. 2. Using the manual multichannel pipettor, and being careful not to introduce bubbles into the plate, 50 μL assay buffer was added to wells A01-H01 of a black Costar 96-well polypropylene storage plate.
Step 3. Using the manual multichannel pipettor, and being careful not to introduce bubbles into the plate, 50 μL of diluted NS3/NS4A-2 from step 1 was added to wells A02-H12 of the plate in step 2.
Step 4. Using the manual multichannel pipettor, and being careful not to introduce bubbles into the plate, 25 μL of the wells in drug dilution plate in step a was transferred to corresponding wells in assay plate in step 3. The tips on the multichannel pipettor were changed for each row of compounds transferred.
Step 5. Using the manual multichannel pipettor, and being careful not to introduce bubbles into the plate, the contents of the wells from the assay plate in step 4 were mixed by aspirating and dispensing 35 μL of the 75 μL in each well five times. The tips on multichannel pipettor were changed for each row of wells mixed.
Step 6. The plate was covered with a polystyrene plate lid, and the plate from step 5 containing NS3 protease and sample compounds was pre-incubated 10 minutes at room temperature.
While the plate from step 6 is pre-incubating, the RETS1 substrate was diluted in a 15 mL polypropylene centrifuge tube. The RETS1 substrate was diluted to 8 μM (1:80.75 of 646 μM stock−65 μL 646 μM stock+5184 μL assay buffer).
After the plate in step 6 finished pre-incubating, and using the manual multichannel, 25 μL of substrate was added to all wells on the plate. The contents of the wells of the plate were quickly mixed, as in step 5, mixing 65 μL of the 100 μL in the wells.
The plate was read in kinetic mode on the Molecular Devices SpectraMax Gemini XS plate reader. Reader settings: Read time: 30 minutes, Interval: 36 seconds, Reads: 51, Excitation λ: 335 nm, Emission λ: 495 nm, cutoff: 475 nm, Automix: off, Calibrate: once, PMT: high, Reads/well: 6, Vmax pts: 21 or 28/51 depending on length of linearity of reaction
IC50s are determined using a four parameter curve fit equation, and converted to Ki's using the following Km's: • Full-length E. coli NS3-2.03 μM • Full-length BV NS3-1.74 μM • where Ki=IC50/(1+[S]/Km))

[2] = test system: HCV sub-genomic replicon (I377/NS3-3′) in HuH-7 hepatoma cells (GS4.3); assay: Quantitation by ELISA of NPTII in the HCV sub-genomic replicon, GS4.3; type: cell-based; details: Hepatitis C virus, GS4.3 replicon cells, 72 h incubation
Description: The HCV sub-genomic replicon (I377/NS3-3′, accession No. AJ242652), stably maintained in HuH-7 hepatoma cells, was created by Lohmann et al. Science 285: 110-113 (1999). The replicon-containing cell culture, designated GS4.3, was obtained from Dr. Christoph Seeger of the Institute for Cancer Research, Fox Chase Cancer Center, Philadelphia, Pa.
GS4.3 cells were maintained at 37° C., 5% CO2, in DMEM (Gibco 11965-092) supplemented with L-glutamine 200 mM (100×) (Gibco25030-081), non-essential amino acids (NEAA)(Biowhittaker 13-114E), heat-inactivated (HI) Fetal Bovine Serum(FBS)(Hyclone SH3007.03) and […] geneticin (G418)(Gibco 10131-035). Cells were sub-divided 1:3 or 4 every 2-3 days.
24 h prior to the assay, GS4.3 cells were collected, counted, and plated in 96-well plates (Costar 3585) at 7500 cells/well in 100 μL standard maintenance medium (above) and incubated in the conditions above. To initiate the assay, culture medium was removed, cells were washed once with PBS (Gibco 10010-023) and 90 μl Assay Medium (DMEM, L-glutamine, NEAA, 10% HI FBS, no G418) was added. Inhibitors were made as a 10× stock in Assay Medium, (3-fold dilutions from 10 μM to […] final concentration, final DMSO concentration 1%), 10 μL were added to duplicate wells, plates were rocked to mix, and incubated as above for 72 h.
An NPTII Elisa kit was obtained from AGDIA, Inc. (Compound direct ELISA test system for Neomycin Phosphotransferase II, PSP 73000/4800). Manufacturer's instructions were followed, with some modifications. 10×PEB-1 lysis buffer was made up to include 500 μM PMSF (Sigma P7626, 50 mM stock in isopropanol). After 72 h incubation, cells were washed once with PBS and 150 μL PEB-1 with PMSF was added per well. Plates were agitated vigorously for 15 minutes, room temperature, and then frozen at −70° C. Plates were thawed, lysates were mixed thoroughly, and 100 μL were applied to an NPTII Elisa plate. A standard curve was made. Lysate from DMSO-treated control cells was pooled, serially diluted with PEB-1 with PMSF, and applied to duplicate wells of the ELISA plate, in a range of initial lysate amount of 150 μL. In addition, 100 μL buffer alone was applied in duplicate as a blank. Plates were sealed and gently agitated at room temperature for 2 h. Following capture incubation, the plates were washed 5×300 μL with PBS-T (0.5% Tween-20, PBS-T was supplied in the ELISA kit). For detection, a 1× dilution of enzyme conjugate diluent MRS-2 (5×) was made in PBS-T, into which 1:100 dilutions of enzyme conjugates A and B were added, as per instructions. Plates were resealed, and incubated with agitation, covered, room temperature, for 2 h. The washing was then repeated and 100 μL of room temperature TMB substrate was added. After approximately 30 minutes incubation (room temperature, agitation, covered), the reaction was stopped with 50 μL 3M sulfuric acid. Plates were read at 450 nm on a Molecular Devices Versamax plate reader.
Inhibitor effect was expressed as a percentage of DMSO-treated control signal, and inhibition curves were calculated using a 4-parameter equation: y=A+4B−A)/(1+((C/x)̂D))), where C is half-maximal activity or EC50.

| SMILES | IC50 [1] | EC50 [2] |
| --- | --- | --- |
| CC[C@@H]1C[C@@]12NC(=O)[C@@H]1C[C@H](CN1C(=O)[C@@H](NC(=O)OC(C)(C)C)C(C)(C)C)Oc1nc3c(cccc3n1C(C)C)C(=O)NCC=CCCCC1(CC1)S(=O)(=O)NC2=O [Compound 9] | ≤ 10 nM | 10 to 100 nM |
| CC[C@@H]1C[C@@]12NC(=O)[C@@H]1C[C@H](CN1C(=O)[C@@H](NC(=O)OC(C)(C)C)C(C)(C)C)Oc1nc3c(cccc3n1C(C)C)C(=O)NCCC=CCCC1(CC1)S(=O)(=O)NC2=O [Compound 10] | ≤ 10 nM | ≥ 100 nM |
| CC[C@@H]1C[C@@]12NC(=O)[C@@H]1C[C@H](CN1C(=O)[C@@H](NC(=O)OC(C)(C)C)C(C)(C)C)Oc1nc3c(cccc3n1C(C)C)C(=O)NCCCCCCC1(CC1)S(=O)(=O)NC2=O [Compound 11] | ≤ 10 nM | ≥ 100 nM |
| CC[C@@H]1C[C@@]12NC(=O)[C@@H]1C[C@H](CN1C(=O)[C@@H](NC(=O)OC(C)(C)C)C(C)(C)C)Oc1nc3c(cccc3n1C(C)C)C(=O)NCCC=CCCCC1(CC1)S(=O)(=O)NC2=O [Compound 12] | ≤ 10 nM | 10 to 100 nM |
| CC[C@@H]1C[C@@]12NC(=O)[C@@H]1C[C@H](CN1C(=O)[C@@H](NC(=O)OC(C)(C)C)C(C)(C)C)Oc1nc3c(cccc3n1C(C)C)C1=NC(C(C)C)=C(CCC=CCCC3(CC3)S(=O)(=O)NC2=O)S1 [Compound 13] | ≤ 10 nM | ≥ 100 nM |
| CC[C@@H]1C[C@@]12NC(=O)[C@@H]1C[C@H](CN1C(=O)[C@@H](NC(=O)OC(C)(C)C)C(C)(C)C)Oc1nc3c(cccc3n1C(C)C)C(=O)NCCCCCCCC1(CC1)S(=O)(=O)NC2=O [Compound 14] | ≤ 10 nM | ≤ 10 nM |
| CC[C@@H]1C[C@@]12NC(=O)[C@@H]1C[C@H](CN1C(=O)[C@@H](NC(=O)OC(C)(C)C)C(C)(C)C)Oc1nc3c(cccc3n1C(C)C)C1=NC(C(C)C)=C(CCCCCCC3(CC3)S(=O)(=O)NC2=O)S1 [Compound 15] | ≤ 10 nM | ≥ 100 nM |
| CC[C@@H]1C[C@@]12NC(=O)[C@@H]1C[C@H](CN1C(=O)[C@@H](NC(=O)OC(C)(C)C)C(C)(C)C)Oc1nc3c(cccc3n1C(C)C)C1=NC(C(C)C)=C(CCC/C=C/CCCC3(CC3)S(=O)(=O)NC2=O)S1 [Compound 101] | ≤ 10 nM | ≥ 100 nM |
| CC[C@@H]1C[C@@]12NC(=O)[C@@H]1C[C@H](CN1C(=O)[C@@H](NC(=O)OC(C)(C)C)C(C)(C)C)Oc1nc3c(cccc3n1C(C)C)C1=NC(C(C)C)=C(CCCCCCCCC3(CC3)S(=O)(=O)NC2=O)S1 [Compound 102] | 10 to 100 nM | ≥ 100 nM |
| CC[C@@H]1C[C@@]12NC(=O)[C@@H]1C[C@H](CN1C(=O)[C@@H](N)C(C)(C)C)Oc1nc3c(cccc3n1C(C)C)C1=NC(C(C)C)=C(CCC/C=C/CCCC3(CC3)S(=O)(=O)NC2=O)S1 [Compound 103] | 10 to 100 nM | ≥ 100 nM |
| CC[C@@H]1C[C@@]12NC(=O)[C@@H]1C[C@H](CN1C(=O)[C@@H](N)C(C)(C)C)Oc1nc3c(cccc3n1C(C)C)C1=NC(C(C)C)=C(CCCCCCCCC3(CC3)S(=O)(=O)NC2=O)S1 [Compound 104] | 10 to 100 nM | ≥ 100 nM |
| CC[C@@H]1C[C@@]12NC(=O)[C@@H]1C[C@H](CN1C(=O)[C@@H](NC(=O)OC(C)(C)C)C(C)(C)C)Oc1nc3c(cccc3n1C(C)C)C1=NC(C(C)C)=C(CC/C=C/CCCCS(=O)(=O)NC2=O)S1 [Compound 105] | ≤ 10 nM | ≥ 100 nM |
| CC[C@@H]1C[C@@]12NC(=O)[C@@H]1C[C@H](CN1C(=O)[C@@H](NC(=O)OC(C)(C)C)C(C)(C)C)Oc1nc3c(cccc3n1C(C)C)C1=NC(C(C)C)=C(CC/C=C\CCCCS(=O)(=O)NC2=O)S1 [Compound 106] | 10 to 100 nM | ≥ 100 nM |
| CC[C@@H]1C[C@@]12NC(=O)[C@@H]1C[C@H](CN1C(=O)[C@@H](NC(=O)OC(C)(C)C)C(C)(C)C)Oc1nc3c(cccc3n1C(C)C)C1=NC(C(C)C)=C(CCCCCCCCS(=O)(=O)NC2=O)S1 [Compound 107] | 10 to 100 nM | ≥ 100 nM |
| CC[C@@H]1C[C@@]12NC(=O)[C@@H]1C[C@H](CN1C(=O)[C@@H](N)C(C)(C)C)Oc1nc3c(cccc3n1C(C)C)C1=NC(C(C)C)=C(CC/C=C\CCCCS(=O)(=O)NC2=O)S1 [Compound 108] | ≥ 100 nM | ≥ 100 nM |
| CC[C@@H]1C[C@@]12NC(=O)[C@@H]1C[C@H](CN1C(=O)[C@@H](N)C(C)(C)C)Oc1nc3c(cccc3n1C(C)C)C1=NC(C(C)C)=C(CC/C=C/CCCCS(=O)(=O)NC2=O)S1 [Compound 109] | ≥ 100 nM | ≥ 100 nM |
| CC[C@@H]1C[C@@]12NC(=O)[C@@H]1C[C@H](CN1C(=O)[C@@H](N)C(C)(C)C)Oc1nc3c(cccc3n1C(C)C)C1=NC(C(C)C)=C(CCCCCCCCS(=O)(=O)NC2=O)S1 [Compound 110] | ≥ 100 nM | ≥ 100 nM |
